These results are taken from article PMC4263425 (Biochemistry, 2014).

One experiment has as its target HDAC8. The settings on record: read-out: Ki for HDAC8; cited from earlier work.
Experiment [1] has as its target T1, human HDAC8 (Homo sapiens, UniProt Q9BY41).
T1 sequence (Q9BY41 1-377): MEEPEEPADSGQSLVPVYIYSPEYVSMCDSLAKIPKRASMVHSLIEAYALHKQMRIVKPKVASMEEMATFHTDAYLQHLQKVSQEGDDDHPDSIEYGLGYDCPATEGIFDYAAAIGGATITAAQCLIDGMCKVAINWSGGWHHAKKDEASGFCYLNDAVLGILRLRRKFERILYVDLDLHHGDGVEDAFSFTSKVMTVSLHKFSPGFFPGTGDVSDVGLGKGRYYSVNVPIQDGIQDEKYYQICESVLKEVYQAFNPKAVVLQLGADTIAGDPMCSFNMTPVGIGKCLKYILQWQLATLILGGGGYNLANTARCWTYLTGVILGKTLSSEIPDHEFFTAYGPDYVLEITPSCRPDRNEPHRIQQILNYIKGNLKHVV
Kind of experiment: Temperature-dependent ITC. The class given is binding. The settings on record: for temp (K), where ΔG° = ΔH°: interpolated from the ΔCp° plots, TΔS° = 0.

In experiment [2] the target is T1, human HDAC8. Kind of experiment: Isothermal titration calorimetry. It counts as binding. On the technique in general: ITC needs no label: the signal is the heat of the interaction.
[3] abbreviates: Tris-HCl buffer (pH 7.5), 25 °C.
The mark [4] stands for this setting: difference versus SAHA, Table 1 conditions.

SMILES strings stand for the structures.

As to `O=C(CCCc1ccccc1)NO` [4-PBHA], on HDAC8, the Ki is 1.85 µM.

In the case of `Cn1cc(C(=O)c2ccccc2)cc1C=CC(=O)NO` [APHA], the Ki at HDAC8 was 0.6 µM.

`CC(NC(=O)CCCc1ccc2ccc3cccc4ccc1c2c34)C(=O)NO` (stereo not shown) [MH-12/4, N-(1-Hydroxycarbamoyl-ethyl)-4-pyren-1-yl-butyramide]: at human HDAC8 [1] (5–25 °C, Tris-HCl buffer, slope of ΔH°obs vs temperature), the “ΔCp°” value was “–0.13 ± 0.02 kcal mol^–1 K^–1”. In addition, on human HDAC8 [1], the “temp (K), where ΔG° = ΔH°” value is recorded as 341 K. Further, at human HDAC8 [2] (setting [3]), the “TΔS°obs” value was found to be 5.3 ± 0.4 kcal/mol, the stoichiometry was 0.9 ± 0.1, the “ΔG°obs” value is “–8.0 ± 0.4 kcal/mol” and the “ΔH°obs” value was “–2.72 ± 0.3 kcal/mol”. Moreover, at human HDAC8 [2] (setting [4]), the “binding enthalpy less favorable than that of SAHA by” value worked out at 8.2 kcal/mol and the “binding entropy (TΔS°) more favorable than that of SAHA by” value worked out at 7.8 kcal/mol.

For the compound `O=C(CCCCCCC(=O)Nc1ccccc1)NO` [SAHA, suberoylanilide hydroxamic acid], the “temp (K), where ΔG° = ΔH°” value at human HDAC8 [1] was determined as 288 K. Moreover, the “higher favorable binding enthalpy compared to that of TSA” value on human HDAC8 [2] (Table 1 conditions) was determined as 2 kcal/mol. On human HDAC8 [2] (setting [3]), the stoichiometry is listed as 0.9 ± 0.1 and the “ΔG°obs” value is “–8.4 ± 0.3 kcal/mol”. Further, the “stoichiometry of the enzyme–SAHA complex” value at human HDAC8 [2] (control ITC titration for every batch of enzyme) was 0.9–1.

Regarding `O=C(CCCCCCC(=O)Nc1cccnc1)NO` [pyroxamide], the Ki on HDAC8 was 1 µM.

In general, Ki refers to a dissociation constant, usually derived from enzyme kinetics or from competition with a known ligand.
